The results in this text go back to patent publication US12157730B2, “Heteroaryl derivative, method for producing same, and pharmaceutical composition comprising same as effective component” (VORONOI INC., priority 2019, dated 2024).

The target in the assay is T1, Ba/F3 cell EGFR Exon20 ins NPH (Homo sapiens, UniProt P00533, INS773NPH).
T1 construct: expressed in transfected cells; host or cells: Ba/F3
The assay is described as follows: Ba/F3 cell proliferation suppression, EGFR Exon20 ins NPH. The format is cell-based. The following applies: GI50 class; Ba/F3 cell line with NPH inserted at Exon20 of EGFR; 72 hours. In a few lines:
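Cells (3000–5000/well) plated 24 h before compound, 12-point 3-fold dilutions at 0.3 nM to 50 um final; Ba/F3 lines grown with 5 ng/ml IL-3. Viability by CellTiter-Glo luminescence after 72 h, growth ratio vs control, GI50 from curves; triplicate.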
Turning to `C=CC(=O)Nc1cc(Nc2cc(N3OCC[C@@H]3c3cccc(Cl)c3Cl)ncn2)c(OC)cc1N1CCC(N2CCN(C(C)C)CC2)CC1` [compound 609, N-(5-((6-((R)-3-(2,3-dichlorophenyl)isoxazolidine-2-yl)pyrimidine-4-yl)amino)-2-(4-(4-isopropylpiperazine-1-yl)piperidine-1-yl)-4-methoxyphenyl) acrylamide], the “Ba/F3 (NPH) Activity” value is on record as “A (GI50 < 50 nM)”. To `C=CC(=O)Nc1cc(Nc2cc(N3OCC[C@@H]3c3cc(F)cc(F)c3)ncn2)c(OC)cc1N1CCC(N2CCO[C@@H](C)C2)CC1` [compound 757, N-(5-((6-((R)-3-(3,5-difluorophenyl)isoxazolidine-2-yl)pyrimidine-4-yl)amino)-4-methoxy-2-(4-((S)-2-methylmorpholino)piperidine-1-yl)phenyl) acrylamide] belongs “A (GI50 < 50 nM)”. `C=CC(=O)Nc1cc(Nc2cc(N3OCC[C@@H]3Cc3cccc(N(C)C)c3)ncn2)c(OC)cc1N1CCC(N2CCN(C3CC3)[C@H](C)C2)CC1` [compound 1046, N-(2-(4-((R)-4-cyclopropyl-3-methylpiperazine-1-yl)piperidine-1-yl)-5-((6-((S)-3-(3-(dimethylamino)benzyl)isoxazolidine-2-yl)pyrimidine-4-yl)amino)-4-methoxyphenyl) acrylamide]: the “Ba/F3 (NPH) Activity” value was “B (50 nM ≤ GI50 < 500 nM)”.

Take `C=CC(=O)Nc1cc(Nc2cc(N3OCC[C@@H]3c3cccc(F)c3Cl)ncn2)c(OC)cc1N1CCC(N2C[C@@H]3C[C@H]2CO3)CC1` [compound 640, N-(2-(4-((1S,4S)-2-oxa-5-azabicyclo[2.2.1]heptane-5-yl)piperidine-1-yl)-5-((6-((R)-3-(2-chloro-3-fluorophenyl)isoxazolidine-2-yl)pyrimidine-4-yl)amino)-4-methoxyphenyl) acrylamide]: the “Ba/F3 (NPH) Activity” value is “A (GI50 < 50 nM)”.

With `C=CC(=O)Nc1cc(Nc2cc(N3OCC[C@@H]3c3cccc(F)c3Cl)ncn2)c(OC)cc1N1CCN(C)CC1` [compound 552, N-(5-((6-((R)-3-(2-chloro-3-fluorophenyl)isoxazolidine-2-yl)pyrimidine-4-yl)amino)-4-methoxy-2-(4-methylpiperazine-1-yl)phenyl)acrylamide], the “Ba/F3 (NPH) Activity” value is given as “A (GI50 < 50 nM)”. Under `C=CC(=O)Nc1cc(Nc2cc(N3OCC[C@@H]3c3cccc(F)c3)ncn2)c(OC)cc1N1CCC(N2CCN(C3CC3)CC2)CC1` [Example 64, N-(2-(4-(4-cyclopropylpiperazine-1-yl)piperidine-1-yl)-5-((6-((R)-3-(3-fluorophenyl)isoxazolidine-2-yl)pyrimidine-4-yl)amino)-4-methoxyphenyl) acrylamide] stands “A (GI50 < 50 nM)”; under `C=CC(=O)Nc1cc(Nc2cc(N3OCC[C@@H]3c3ccc(F)c(Cl)c3F)ncn2)c(OC)cc1N1CCC(N2CCN(C)CC2)CC1` [compound 605, N-(5-((6-((R)-3-(3-chloro-2,4-difluorophenyl)isoxazolidine-2-yl)pyrimidine-4-yl)amino)-4-methoxy-2-(4-(4-methylpiperazine-1-yl)piperidine-1-yl)phenyl) acrylamide], “A (GI50 < 50 nM)”; under `C=CC(=O)Nc1cc(Nc2cc(N3OCC[C@@H]3c3cccc(Cl)c3F)ncn2)c(OC)cc1N1CCN(C)CC1` [compound 789, N-(5-((6-((R)-3-(3-chloro-2-fluorophenyl)isoxazolidine-2-yl)pyrimidine-4-yl)amino)-4-methoxy-2-(4-methylpiperazine-1-yl)phenyl)acrylamide], “A (GI50 < 50 nM)”. Under `C=CC(=O)Nc1cc(Nc2cc(N3OCC[C@@H]3c3cccc(Cl)c3F)ncn2)c(OC)cc1N1CCC(N2CCN(C3CC3)[C@@H](C)C2)CC1` [Example 179, N-(5-((6-((R)-3-(3-chloro-2-fluorophenyl)isoxazolidine-2-yl)pyrimidine-4-yl)amino)-2-(4-((S)-4-cyclopropyl-3-methylpiperazine-1-yl)piperidine-1-yl)-4-methoxyphenyl) acrylamide] stands “A (GI50 < 50 nM)”; under `C#Cc1cccc([C@H]2CCON2c2cc(Nc3cc(NC(=O)C=C)c(N4CC[C@@H](N(C)C)C4)cc3OC)ncn2)c1` [compound 653, N-(2-((R)-3-(dimethylamino)pyrolidine-1-yl)-5-((6-((R)-3-(3-ethynylphenyl)isoxazolidine-2-yl)pyrimidine-4-yl)amino)-4-methoxyphenyl) acrylamide], “A (GI50 < 50 nM)”. Under `C=CC(=O)Nc1cc(Nc2cc(N3OCC[C@@H]3c3ccc(F)c(F)c3)ncn2)c(OC)cc1N1CCC(N2CCN(C3CCC3)CC2)CC1` [Example 186, N-(2-(4-(4-cyclobutylpiperazine-1-yl)piperidine-1-yl)-5-((6-((R)-3-(3,4-difluorophenyl)isoxazolidine-2-yl)pyrimidine-4-yl)amino)-4-methoxyphenyl) acrylamide] stands “A (GI50 < 50 nM)”; under `C=CC(=O)Nc1cc(Nc2cc(N3OCC[C@@H]3c3ccc(F)c(F)c3)ncn2)c(OC)cc1N1CCC(N(C)C)CC1` [compound 459, N-(5-((6-((R)-3-(3,4-difluorophenyl)isoxazolidine-2-yl)pyrimidine-4-yl)amino)-2-(4-(dimethylamino)piperidine-1-yl)-4-methoxyphenyl) acrylamide], “A (GI50 < 50 nM)”. On to `C=CC(=O)Nc1cc(Nc2cc(N3OCC[C@@H]3Cc3cccc(F)c3Cl)ncn2)c(OC)cc1N1CCC(N2CCN(C3CC3)CC2)CC1` [compound 1007, N-(5-((6-((S)-3-(2-chloro-3-fluorobenzyl)isoxazolidine-2-yl)pyrimidine-4-yl)amino)-2-(4-(4-cyclopropylpiperazine-1-yl)piperidine-1-yl)-4-methoxyphenyl) acrylamide], for which the “Ba/F3 (NPH) Activity” value is “A (GI50 < 50 nM)”. To `C=CC(=O)Nc1cc(Nc2cc(N3OCC[C@@H]3Cc3cccc(Cl)c3C)ncn2)c(OC)cc1N1CCN(C2CC2)CC1` [compound 1026, N-(5-((6-((S)-3-(3-chloro-2-methylbenzyl)isoxazolidine-2-yl)pyrimidine-4-yl)amino)-2-(4-cyclopropylpiperazine-1-yl)-4-methoxyphenyl) acrylamide] belongs “B (50 nM ≤ GI50 < 500 nM)”; to `C=CC(=O)Nc1cc(Nc2cc(N3OCC[C@@H]3c3cc(F)cc(Cl)c3)ncn2)c(OC)cc1N1CCC(N2CCO[C@@H](C)C2)CC1` [compound 595, N-(5-((6-((R)-3-(3-chloro-5-fluorophenyl)isoxazolidine-2-yl)pyrimidine-4-yl)amino)-4-methoxy-2-(4-((S)-2-methylmorpholino)piperidine-1-yl)phenyl) acrylamide], “A (GI50 < 50 nM)”. To `C=CC(=O)Nc1cc(Nc2cc(N3OCC[C@@H]3Cc3cccc(F)c3C)ncn2)c(OC)cc1N1CCN(CC)CC1` [compound 1003, N-(2-(4-ethylpiperazine-1-yl)-5-((6-(S)-(3-(3-fluoro-2-methylbenzyl)isoxazolidine-2-yl)pyrimidine-4-yl)amino)-4-methoxyphenyl) acrylamide] belongs “A (GI50 < 50 nM)”.
